For orientation: DC50 means the concentration giving 50% degradation. The Dmax is the greatest extent of degradation seen.

For 13 molecules, DC50 and Dmax results are on record in patent publication US12091426B2, “Bifunctional degraders of hematopoietic progenitor kinase and therapeutic uses thereof” (Nurix Therapeutics, Inc., priority 2021, dated 2024).

Each structure is given as a SMILES string. Where only a bound is given, the exact number is not on record here.

For this experiment, the target named is T1, HPK1 (Homo sapiens, UniProt Q92918).
T1 construct: A HiBiT tag was introduced by CRISPR on the N terminus of HPK1 in Jurkat cells; host or cells: Jurkat cells (ATCC TIB-152), monoclonal line with CRISPR knock-in of HiBiT at the endogenous HPK1 locus
Briefly: HPK1 Cellular HiBit Degradation Assay. The note with it: HiBiT HPK1 Jurkat cells, 24 hrs; for DC50: concentration at which 50% of HPK1 was remaining, read-out: DC50 Category; for Dmax: Jurkat, maximum degradation vs DMSO vehicle control, read-out: Dmax Category. The format is cell-based. The procedure, abridged: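 Jurkat cells with CRISPR N-terminal HiBiT-tagged endogenous HPK1 treated 24 h at 37 °C with 11-point, 3.16-fold dilutions (10 uM to 0.1 nM final). HiBiT lytic luminescence gives % HPK1 remaining versus DMSO, with parental cells as background. Four-parameter fit yields DC50; Dmax = 100 minus lowest % remaining.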
Background: With HiBiT, luminescence reflects the tagged protein that the partner subunit can reach.

T1 sequence (Q92918 whole entry): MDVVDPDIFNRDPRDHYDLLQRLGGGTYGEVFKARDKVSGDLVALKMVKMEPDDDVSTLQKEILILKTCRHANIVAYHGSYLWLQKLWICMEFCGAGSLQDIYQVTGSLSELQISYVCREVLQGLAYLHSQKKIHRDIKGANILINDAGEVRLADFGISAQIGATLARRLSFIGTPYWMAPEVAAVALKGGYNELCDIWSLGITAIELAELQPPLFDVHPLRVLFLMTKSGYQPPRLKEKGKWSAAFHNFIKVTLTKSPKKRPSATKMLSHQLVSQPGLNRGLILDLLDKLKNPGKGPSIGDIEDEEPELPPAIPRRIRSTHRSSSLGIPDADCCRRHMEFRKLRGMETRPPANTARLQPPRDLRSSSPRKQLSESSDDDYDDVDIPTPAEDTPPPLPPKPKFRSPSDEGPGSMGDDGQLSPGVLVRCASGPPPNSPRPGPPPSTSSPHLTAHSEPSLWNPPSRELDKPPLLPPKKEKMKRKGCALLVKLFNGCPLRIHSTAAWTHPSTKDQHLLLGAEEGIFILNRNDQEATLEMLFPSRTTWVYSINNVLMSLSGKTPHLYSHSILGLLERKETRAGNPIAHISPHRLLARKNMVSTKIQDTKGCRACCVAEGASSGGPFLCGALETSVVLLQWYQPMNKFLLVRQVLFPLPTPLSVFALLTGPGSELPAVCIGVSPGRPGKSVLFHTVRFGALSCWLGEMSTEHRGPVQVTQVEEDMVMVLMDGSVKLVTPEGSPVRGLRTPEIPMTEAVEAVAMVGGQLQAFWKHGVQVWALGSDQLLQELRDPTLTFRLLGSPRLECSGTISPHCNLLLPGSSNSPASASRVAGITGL

In the case of `CC(C)n1cnc2cc(-c3ccc4c(c3)N([C@H]3C[C@@H](N5CCCCC5)C3)C(=O)C43CCN(C(=O)[C@@H]4CCN(C(=O)[C@H]5CC[C@H](Oc6ccc(C7CCC(=O)NC7=O)cc6)CC5)C4)CC3)nc(Nc3ccccc3F)c21` (stereo partly drawn) [Example 14, 3-(4-{[(1R,4R)-4-[(3R)-3-[(6-{4-[(2-fluorophenyl)amino]-3-(propan-2-yl)-3H-imidazo[4,5-c]pyridin-6-yl}-2-oxo-1-[(1S,3S)-3-(piperidin-1-yl)cyclobutyl]-1,2-dihydrospiro[indole-3,4′-piperidin]-1′-yl)carbonyl]pyrrolidine-1-carbonyl]cyclohexyl]oxy}phenyl)piperidine-2,6-dione], the DC50 is below 100 nM and the Dmax was above 85%.
With `CC(C)n1cnc2cc(-c3ccc4c(c3)N([C@H]3C[C@@H](N5CCCCC5)C3)C(=O)C43CCN(C(=O)[C@@H]4CCN(C(=O)[C@H]5CC[C@H](Oc6ccc(C7CCC(=O)NC7=O)cc6)CC5)C4)CC3)nc(Nc3ccncc3F)c21` (stereo partly drawn) [Example 15, 3-(4-{[(1R,4R)-4-[(3R)-3-[(6-{4-[(3-fluoropyridin-4-yl)amino]-3-(propan-2-yl)-3H-imidazo[4,5-c]pyridin-6-yl}-2-oxo-1-[(1S,3S)-3-(piperidin-1-yl)cyclobutyl]-1,2-dihydrospiro[indole-3,4′-piperidin]-1′-yl)carbonyl]pyrrolidine-1-carbonyl]cyclohexyl]oxy}phenyl)piperidine-2,6-dione], the DC50 is below 100 nM and the Dmax was above 85%.
With `CC(C)n1cnc2cc(-c3ccc4c(c3)N([C@H]3C[C@@H](N5CCCCC5)C3)C(=O)C43CCN(C(=O)[C@@H]4CCN(C(=O)[C@H]5CC[C@H](Oc6ccc(N7CCC(=O)NC7=O)cn6)CC5)C4)CC3)nc(NC3CC3)c21` [Example 20, 1-(6-{[(1R,4R)-4-[(3R)-3-({6-[4-(cyclopropylamino)-3-(propan-2-yl)-3H-imidazo[4,5-c]pyridin-6-yl]-2-oxo-1-[(1S,3S)-3-(piperidin-1-yl)cyclobutyl]-1,2-dihydrospiro[indole-3,4′-piperidin]-1′-yl}carbonyl)pyrrolidine-1-carbonyl]cyclohexyl]oxy}pyridin-3-yl)-1,3-diazinane-2,4-dione], the DC50 was below 100 nM and the Dmax lay in the range of 70 to 85%.
In the case of `CC(C)n1cnc2cc(-c3ccc4c(c3)N([C@H]3C[C@@H](N5CCCCC5)C3)C(=O)C43CCN(C(=O)[C@@H]4CCN(C(=O)[C@H]5CC[C@H](Oc6ccc(N7CCC(=O)NC7=O)cn6)CC5)C4)CC3)nc(Nc3ccccc3F)c21` [Example 21, 1-(6-{[(1R,4R)-4-[(3R)-3-[(6-{4-[(2-fluorophenyl)amino]-3-(propan-2-yl)-3H-imidazo[4,5-c]pyridin-6-yl}-2-oxo-1-[(1S,3S)-3-(piperidin-1-yl)cyclobutyl]-1,2-dihydrospiro[indole-3,4′-piperidin]-1′-yl)carbonyl]pyrrolidine-1-carbonyl]cyclohexyl]oxy}pyridin-3-yl)-1,3-diazinane-2,4-dione], the DC50 was below 100 nM and the Dmax was above 85%.
Turning to `CC(C)n1cnc2cc(-c3ccc4c(c3)N([C@H]3C[C@@H](N5CCCCC5)C3)C(=O)C43CCN(C(=O)[C@@H]4CCN(C(=O)[C@H]5CC[C@H](Oc6ccc(N7CCC(=O)NC7=O)cn6)CC5)C4)CC3)nc(Nc3ccncc3F)c21` [Example 22, 1-(6-{[(1R,4R)-4-[(3R)-3-[(6-{4-[(3-fluoropyridin-4-yl)amino]-3-(propan-2-yl)-3H-imidazo[4,5-c]pyridin-6-yl}-2-oxo-1-[(1S,3S)-3-(piperidin-1-yl)cyclobutyl]-1,2-dihydrospiro[indole-3,4′-piperidin]-1′-yl)carbonyl]pyrrolidine-1-carbonyl]cyclohexyl]oxy}pyridin-3-yl)-1,3-diazinane-2,4-dione], the DC50 is below 100 nM and the Dmax fell in the range of 70 to 85%.
For `CC(C)n1cnc2cc(-c3ccc4c(c3)N([C@H]3C[C@@H](N5CCCCC5)C3)C(=O)C43CCN(C(=O)[C@@H]4CCN(C(=O)C5CCN(c6ccc(C7CCC(=O)NC7=O)cn6)CC5)C4)CC3)nc(Nc3ccccc3F)c21` (stereo partly drawn) [Example 24, 3-(6-(4-((R)-3-(6-(4-((2-fluorophenyl)amino)-3-isopropyl-3H-imidazo[4,5-c]pyridin-6-yl)-2-oxo-1-((1s,3S)-3-(piperidin-1-yl)cyclobutyl)spiro[indoline-3,4′-piperidine]-1′-carbonyl)pyrrolidine-1-carbonyl)piperidin-1-yl)pyridin-3-yl)piperidine-2,6-dione] the same measures were below 100 nM and above 85%.
For `CC(C)n1cnc2cc(-c3ccc4c(c3)N([C@H]3C[C@@H](N5CCCCC5)C3)C(=O)C43CCN(C(=O)[C@H]4CC[C@H](C(=O)N5CCC(Nc6ccc(C7CCC(=O)NC7=O)cn6)CC5)CC4)CC3)nc(Nc3ccccc3F)c21` (stereo partly drawn) [Example 26, 3-(6-((1-((1R,4R)-4-(6-(4-((2-fluorophenyl)amino)-3-isopropyl-3H-imidazo[4,5-c]pyridin-6-yl)-2-oxo-1-((1s,3S)-3-(piperidin-1-yl)cyclobutyl)spiro[indoline-3,4′-piperidine]-1′-carbonyl)cyclohexane-1-carbonyl)piperidin-4-yl)amino)pyridin-3-yl)piperidine-2,6-dione] the same measures were below 100 nM and 70 to 85%.
Regarding `CC(C)n1cnc2cc(-c3ccc4c(c3)N([C@H]3C[C@@H](N5CCCCC5)C3)C(=O)C43CCN(C(=O)C4CCN(C(=O)[C@H]5CC[C@H](C(=O)N6CCc7cc(C8CCC(=O)NC8=O)ccc7C6)CC5)CC4)CC3)nc(Nc3ccccc3F)c21` (stereo partly drawn) [Example 48, 3-(2-((1R,4R)-4-(4-(6-(4-((2-fluorophenyl)amino)-3-isopropyl-3H-imidazo[4,5-c]pyridin-6-yl)-2-oxo-1-((1S,3S)-3-(piperidin-1-yl)cyclobutyl)spiro[indoline-3,4′-piperidine]-1′-carbonyl)piperidine-1-carbonyl)cyclohexane-1-carbonyl)-1,2,3,4-tetrahydroisoquinolin-6-yl)piperidine-2,6-dione], the DC50 is below 100 nM and the Dmax fell in the range of 70 to 85%.
As to `CC(C)n1cnc2cc(-c3ccc4c(c3)N([C@H]3C[C@@H](N5CCCCC5)C3)C(=O)C43CCN(C(=O)C4CCN(C(=O)[C@H]5CC[C@H](C(=O)N6CCc7cc(N8CCC(=O)NC8=O)ccc7C6)CC5)CC4)CC3)nc(Nc3ccccc3F)c21` [Example 49, 1-{2-[(1R,4R)-4-{4-[(6-{4-[(2-fluorophenyl)amino]-3-(propan-2-yl)-3H-imidazo[4,5-c]pyridin-6-yl}-2-oxo-1-[(1S,3S)-3-(piperidin-1-yl)cyclobutyl]-1,2-dihydrospiro[indole-3,4′-piperidin]-1′-yl)carbonyl]piperidine-1-carbonyl}cyclohexanecarbonyl]-1,2,3,4-tetrahydroisoquinolin-6-yl}-1,3-diazinane-2,4-dione], the DC50 was in the range of 100 to 500 nM and the Dmax was 50 to 70%.
For `CC(C)n1cnc2cc(-c3ccc4c(c3)N([C@H]3C[C@@H](N5CCCCC5)C3)C(=O)C43CCN(C(=O)C4CCN(C(=O)C5CCN(c6ccc(C7CCC(=O)NC7=O)cc6)CC5)CC4)CC3)nc(NC3CC3)c21` (stereo partly drawn) [Example 66, 3-(4-(4-(4-(6-(4-(cyclopropylamino)-3-isopropyl-3H-imidazo[4,5-c]pyridin-6-yl)-2-oxo-1-((1S,3S)-3-(piperidin-1-yl)cyclobutyl)spiro[indoline-3,4′-piperidine]-1′-carbonyl)piperidine-1-carbonyl)piperidin-1-yl)phenyl)piperidine-2,6-dione] the same measures were below 100 nM and 70 to 85%.
In the case of `CC(C)n1cnc2cc(-c3ccc4c(c3)N([C@H]3C[C@@H](N5CCCCC5)C3)C(=O)C43CCN(C(=O)C4CCN(C(=O)C5CCN(c6ccc(C7CCC(=O)NC7=O)cc6)CC5)CC4)CC3)nc(Nc3ccncc3F)c21` (stereo partly drawn) [Example 68, 3-(4-(4-(4-(6-(4-((3-fluoropyridin-4-yl)amino)-3-isopropyl-3H-imidazo[4,5-c]pyridin-6-yl)-2-oxo-1-((1S,3S)-3-(piperidin-1-yl)cyclobutyl)spiro[indoline-3,4′-piperidine]-1′-carbonyl)piperidine-1-carbonyl)piperidin-1-yl)phenyl)piperidine-2,6-dione], the DC50 was below 100 nM and the Dmax lay in the range of 70 to 85%.
`CC(C)n1cnc2cc(-c3ccc4c(c3)N([C@H]3C[C@@H](N5CCCCC5)C3)C(=O)C43CCN(C(=O)C4CCN(C(=O)C5CCN(c6ccc(N7CCC(=O)NC7=O)cc6)CC5)CC4)CC3)nc(NC3CC3)c21` [Example 69, 1-(4-{4-[4-({6-[4-(cyclopropylamino)-3-(propan-2-yl)-3h-imidazo[4,5-c]pyridin-6-yl]-2-oxo-1-[(1S,3S)-3-(piperidin-1-yl)cyclobutyl]-1,2-dihydrospiro[indole-3,4′-piperidin]-1′-yl}carbonyl)piperidine-1-carbonyl]piperidin-1-yl}phenyl)-1,3-diazinane-2,4-dione]: the DC50 was below 100 nM and the Dmax was in the range of 70 to 85%.
As for `CC(C)n1cnc2cc(-c3ccc4c(c3)N([C@H]3C[C@@H](N5CCCCC5)C3)C(=O)C43CCN(C(=O)C4CCN(C(=O)C5CCN(c6ccc(N7CCC(=O)NC7=O)cc6)CC5)CC4)CC3)nc(Nc3ccccc3F)c21` [Example 70, 1-[4-(4-{4-[(6-{4-[(2-fluorophenyl)amino]-3-(propan-2-yl)-3H-imidazo[4,5-c]pyridin-6-yl}-2-oxo-1-[(1S,3S)-3-(piperidin-1-yl)cyclobutyl]-1,2-dihydrospiro[indole-3,4′-piperidin]-1′-yl)carbonyl]piperidine-1-carbonyl}piperidin-1-yl)phenyl]-1,3-diazinane-2,4-dione], the DC50 was below 100 nM and the Dmax was above 85%.
